{
  "source": "patent US20220202832A1",
  "about": "“ALLOPREGNANOLONE COMPOSITIONS AND USES THEREOF” (The Regents of the University of California, priority 2019, published 2022)",
  "key": {"[1]": {"tested_on": "motor function of mice", "experiment": "horizontal screen test (motor impairment)", "type": "in vivo", "settings": "for motor function in the horizontal screen test, in words: intranasal, doses with comparable antiseizure activity; for animals that fell from the grid: intranasal 1 mg/kg", "description": "At various times after intranasal administration, mice were placed on a horizontally oriented grid (consisting of parallel 1.5-mm diameter rods situated 1 cm apart) for 2-3 s and the grid was inverted and held approximately 30-40 cm above a padded surface for a maximum of 60 s. If the animal fell from the grid, the latency from the time of inversion to the time of fall was recorded."}, "[2]": {"settings": "even when solubilized with sulfobutyl ether β-cyclodextrin, sodium salt; cited from earlier work"}, "[3]": {"tested_on": "righting reflex of mice", "experiment": "loss of righting reflex test", "type": "in vivo", "settings": "for loss of righting reflex (sedation), in words: 10 min to 30 min after administration", "description": "Time course of loss of righting reflex following intranasal allopregnanolone (16 mg/kg) and intramuscular allopregnanolone (16 mg/kg). Loss of righting reflex is a nonnoxious behavioral paradigm that indicates loss of consciousness (hypnosis). […] Intranasal delivery of alloprepregnanolone according to the methods described herein avoids the adverse effects on behavior associated with intramuscular bolus administration.\nFor the test, the mouse was placed on its back on a tabletop."}, "[4]": {"tested_on": "PTZ-induced seizures (seizure threshold)", "experiment": "timed intravenous PTZ seizure threshold test", "type": "in vivo, mice", "settings": "for effect on seizure threshold parameters: Example 2; for elevation in thresholds to the three seizure endpoints: intranasal 1 mg/kg, compared with allopregnanolone 16 mg/kg", "description": "(§1) The thresholds for various behavioral seizure stages induced by the PTZ and bicuculine were determined by infusing the convulsant drugs via a 27-gauge, 0.75-inch “butterfly” needle inserted into the lateral tail vein. PTZ (10 mg/ml) and bicuculline (0.1 mg/ml) were infused IV at a constant rate of 0.5 ml/min using a 5-ml syringe (BD Biosciences, Franklin Lakes, N.J.) mounted on an infusion pump (Model ‘11’ Plus Syringe Pump; Harvard Apparatus, Holliston, Mass.). The syringe was connected to the needle by polyethylene tubing. The infusion was stopped at 3 min or at the onset of tonic extension, whichever occurred first. The time to occurrence (“infusion duration”) to the following endpoints from the start of the convulsant infusion were determined: (1) the first myoclonic jerk; (2) the onset of generalized clonus; and (3) the onset of tonic extension. Infusion duration values represent the time from the start of the convulsant infusion to the onset of the endpoint. The threshold value (mg/kg) for each endpoint was determined according to the following formula: (infusion duration [s]×infusion rate [ml/min]×convulant concentration [10 mg/ml or 0.1 mg/ml]×1000)/(60 s×body weight of mouse [g])."}, "[5]": {"settings": "human; cited from earlier work"}, "[6]": {"tested_on": "bicuculline-induced seizures (seizure threshold)", "experiment": "intravenous bicuculline threshold test", "type": "in vivo, mice", "settings": "intranasal 16 mg/kg; 10 min", "description": "as §1"}, "[7]": {"settings": "cited from earlier work"}, "[8]": {"experiment": "plasma pharmacokinetics after intranasal or intramuscular dosing", "description": "Allopregnanolone (16 mg/mL in 40% Captisol® in 0.9% saline) was administered intranasally at a total dose of 10 mg/kg. 2-3 microliters of solution was administered 3-5 times to each nostril (6-10 times total) over a period of 3.5 min. Allopregnanolone (6 mg/mL in 24% Captisol® in 0.9% saline) was administered intramuscularly at a total dose of 12 mg/kg. Time course of plasma levels of allopregnanolone following intranasal allopregnanolone (10 mg/kg) and intramuscular allopregnanolone (12 mg/kg) was monitored. At various times after administration, trunk blood was collected in chilled heparinized tubes. In some cases, blood was collected by retro-orbital puncture. Plasma was separated and assayed for allopregnanolone as described in Zolkowska D. et al., Epilepsia 2018 October; 59 Suppl 2:220-227.\nAt various times after intranasal administration, trunk blood samples were collected into chilled tubes. Brains were removed, separated into 3 sections (olfactory bulb, forebrain with midbrain, cerebellum with attached pons and medulla) and fast-frozen on dry ice. Blood was centrifuged at 1500 RCF for 10 min to separate the plasma. Brain and plasma samples were stored at −80° C. until processing. Plasma and brain samples were analyzed for allopregnanolone as described in Zolkowska et al (2018). The lower limit of quantification in plasma is 2.5 ng/ml."}, "[9]": {"experiment": "brain region pharmacokinetics after intranasal dosing"}, "[10]": {"tested_on": "PTZ-induced seizures", "experiment": "maximal PTZ seizure test", "type": "in vivo, mice", "description": "Solutions of allopregnanolone (5α,3α-P) (15 mg/ml) were prepared in 40% sulfobutylether-β-cyclodextrin sodium salt in 0.9% saline. Seizures were induced in mice with pentylenetetrazol (PTZ; […] IP). 5α,3α-P solution (6 and 10 mg/kg) or vehicle was administered intranasally 5, 10 and 15 min prior to administration of the PTZ. […] The times to onset of myoclonic body twitches and clonic and tonic seizures were recorded. 5α,3α-P was considered to have antiseizure activity if it delayed the onset of seizure signs in comparison with the time of their occurrence in vehicle-treated animals.\nThe times to occurrence of the 3 seizure signs as in the timed intravenous PTZ seizure test were recorded. Allopregnanolone (10 mg/kg) or vehicle was administered intranasally 10 min prior to the PTZ injection."}, "[11]": {"settings": "intranasal; cited from earlier work"}, "[12]": {"settings": "intranasal 16 mg/kg, 10 min after dosing"}, "[13]": {"settings": "mouse, plasma, inhaled or intranasal, 10 mg/kg"}, "[14]": {"settings": "mouse, olfactory bulb, inhaled or intranasal, 10 mg/kg"}, "[15]": {"settings": "intranasal 10 mg/kg, 10 min before PTZ 80 mg/kg IP"}},
  "note": "Entries after “also recorded” stand apart in the source; their conditions may differ. Where two headings read alike, the source gives them in different places.",
  "data": [
    {"smiles": "CC(=O)[C@H]1CC[C@H]2[C@@H]3CC[C@H]4C[C@H](O)CC[C@]4(C)[C@H]3CC[C@]12C", "note": "[allopregnanolone, 3α-hydroxy-5α-pregnan-20-one]", "values": [
      {"measurement": "animals that did not fall from the grid", "setting": "[1]; intranasal 16 mg/kg", "value": "5 of 8"},
      {"measurement": "area under mean holding time versus time curve, compared with untreated (naive) animals", "setting": "[1]; intranasal 16 mg/kg", "value": "not significantly different"},
      {"measurement": "motor function in the horizontal screen test, in words", "setting": "[1]", "value": "fails to cause substantial sedation or motor impairment"},
      {"measurement": "oral bioavailability", "setting": "[2]", "value": "not orally bioavailable"},
      {"measurement": "animals exhibiting loss of righting reflex", "setting": "[3]; intramuscular 16 mg/kg", "value": "9 of 10"},
      {"measurement": "loss of righting reflex (sedation), in words", "setting": "[3]; intramuscular 16 mg/kg", "value": "substantial loss of righting reflex; also recorded: profound sedation"},
      {"measurement": "loss of righting reflex (sedation), in words", "setting": "[3]; intramuscular 16 mg/kg, listed as Allopregnanolone", "value": "loss of righting reflex in a high proportion of mice"},
      {"measurement": "loss of righting reflex (sedation/general anesthesia), in words", "setting": "[3]; intranasal 16 mg/kg", "value": "not associated with substantial sedation/general anesthesia; also recorded: only minimal loss of righting reflex"},
      {"measurement": "animals exhibiting loss of righting reflex", "setting": "[3]; intranasal 16 mg/kg, 60 min observation", "value": "2 of 25"},
      {"measurement": "loss of righting reflex (sedation/general anesthesia), in words", "setting": "[3]; intranasal 16 mg/kg, listed as Allopregnanolone", "value": "loss of righting reflex in only a small proportion of animal"},
      {"measurement": "effect on seizure threshold parameters", "setting": "[4]; intranasal 16 mg/kg, 10 minutes", "value": "large and statistically significant increase"},
      {"measurement": "effect on seizure threshold parameters", "setting": "[4]; intranasal 16 mg/kg, 1 hour", "value": "diminishes"},
      {"measurement": "effect on seizure threshold parameters", "setting": "[4]; intranasal 16 mg/kg, 8 hours", "value": "absent; also recorded: no substantial elevation"},
      {"measurement": "change in tonic extension threshold versus vehicle", "setting": "[4]; intranasal 16 mg/kg, 10 min", "value": "statistically significant increase"},
      {"measurement": "ratio of mean threshold values, drug to vehicle: clonus", "setting": "[4]; [12]", "value": 1.4},
      {"measurement": "ratio of mean threshold values, drug to vehicle: myoclonic twitch", "setting": "[4]; [12]", "value": 1.3},
      {"measurement": "ratio of mean threshold values, drug to vehicle: tonic extension", "setting": "[4]; [12]", "value": 2.7},
      {"measurement": "ratio of mean thresholds, drug to vehicle: tonic extension", "setting": "[4]; intranasal 16 mg/kg, 15 min (maximum elevation)", "value": 5.3},
      {"measurement": "ratio of mean thresholds, drug to vehicle: tonic extension", "setting": "[4]; intranasal 16 mg/kg, 60 min", "value": 1.3},
      {"measurement": "ratio of mean thresholds, drug to vehicle: tonic extension", "setting": "[4]; intranasal 16 mg/kg, 360 min", "value": 1.1},
      {"measurement": "t1/2", "setting": "[5]", "value": 35, "unit": "min"},
      {"measurement": "ratio of threshold, drug to vehicle: tonic extension", "setting": "[6]", "value": 1.5},
      {"measurement": "dose adjusted Cmax", "setting": "[7]; intramuscular, prior study", "value": 2150, "unit": "ng/mL"},
      {"measurement": "Tmax", "setting": "[7]; intramuscular", "value": 60, "unit": "min"},
      {"measurement": "plasma concentration half-time (t1/2)", "setting": "[7]; mice", "value": 16, "unit": "min"},
      {"measurement": "time therapeutic levels are maintained", "setting": "[8]; intramuscular", "value": "about 2 hours"},
      {"measurement": "time by which plasma levels taper off", "setting": "[8]; intramuscular 12 mg/kg", "value": "about 4 hours"},
      {"measurement": "time therapeutically meaningful blood levels are maintained", "setting": "[8]; intranasal", "value": "up to 8 hours"},
      {"measurement": "time plasma levels are sustained", "setting": "[8]; intranasal 10 mg/kg", "value": "up to 8 hours"},
      {"measurement": "true Cmax (time)", "setting": "[8]; intranasal 10 mg/kg, likely value", "value": "< 5", "unit": "min"},
      {"measurement": "Cmax", "setting": "[8]; [13]", "value": 3500, "unit": "ng/mL"},
      {"measurement": "Tmax", "setting": "[8]; [13]", "value": 1, "unit": "min"},
      {"measurement": "half-life", "setting": "[8]; mouse, plasma, inhaled or intranasal, 10 mg/kg, plasma initial phase t1/2, intranasal 10 mg/kg, first 15 min", "value": 4.9, "unit": "min"},
      {"measurement": "half-life", "setting": "[8]; mouse, plasma, inhaled or intranasal, 10 mg/kg, plasma t1/2 (overall curve), intranasal 10 mg/kg", "value": 49, "unit": "min"},
      {"measurement": "olfactory bulb levels compared with plasma levels", "setting": "[9]; intranasal", "value": "substantially higher than the plasma levels"},
      {"measurement": "olfactory bulb concentration relative to whole brain", "setting": "[9]; intranasal 16 mg/kg, mean of 1, 2, 5 and 10 min", "value": 10, "unit": "fold"},
      {"measurement": "Cmax", "setting": "[9]; mouse, forebrain, cerebellum, inhaled or intranasal, 10 mg/kg", "value": "600 to 700", "unit": "ng/g"},
      {"measurement": "Cmax", "setting": "[9]; [14]", "value": 16000, "unit": "ng/g"},
      {"measurement": "Tmax", "setting": "[9]; [14]", "value": 1, "unit": "min"},
      {"measurement": "delay in seizure signs", "setting": "[10]; Example 1, administered 15 min before PTZ, compared with 5 min", "value": "less active"},
      {"measurement": "effect on time to onset of seizure signs", "setting": "[10]; Example 1, intranasal 6 mg/kg", "value": "delayed the time to onset of all seizure signs"},
      {"measurement": "protection from tonic hind limb extension and mortality", "setting": "[10]; Example 1, intranasal 10 mg/kg", "value": "some animals were protected"},
      {"measurement": "ratio of latencies, drug to vehicle: clonus", "setting": "[10]; [15]", "value": 1.5},
      {"measurement": "ratio of latencies, drug to vehicle: myoclonic twitch", "setting": "[10]; [15]", "value": 1.3},
      {"measurement": "ratio of latencies, drug to vehicle: tonic extension", "setting": "[10]; [15]", "value": 4.4},
      {"measurement": "animals that failed to exhibit tonic extension", "setting": "[10]; intranasal 10 mg/kg, of the 14 animals tested", "value": 5}
    ]},
    {"smiles": "CN1C(=O)CN=C(c2ccccc2)c2cc(Cl)ccc21", "note": "[diazepam]", "values": [
      {"measurement": "animals that fell from the grid", "setting": "[1]", "value": "all"},
      {"measurement": "motor function in the horizontal screen test, in words", "setting": "[1]", "value": "dramatically impair motor function"},
      {"measurement": "elevation in thresholds to the three seizure endpoints", "setting": "[4]", "value": "comparable elevations"}
    ]},
    {"smiles": "CC1(C)O[C@@H]2C[C@H]3[C@@H]4C[C@H](F)C5=CC(=O)C=C[C@]5(C)[C@H]4[C@@H](O)C[C@]3(C)[C@]2(C(=O)CO)O1", "note": "[flunisolide]", "values": [
      {"measurement": "systemic availability", "setting": "[11]", "value": "substantial"}
    ]},
    {"smiles": "CCC(=O)O[C@]1(C(=O)SCF)[C@H](C)C[C@H]2[C@@H]3C[C@H](F)C4=CC(=O)C=C[C@]4(C)[C@@]3(F)[C@@H](O)C[C@@]21C", "note": "[fluticasone propionate]", "values": [
      {"measurement": "systemic availability", "setting": "[11]", "value": "negligible"}
    ]},
    {"smiles": "Cc1ncc2n1-c1ccc(Cl)cc1C(c1ccccc1F)=NC2", "note": "[midazolam]", "values": [
      {"measurement": "animals that fell from the grid", "setting": "[1]", "value": "all"},
      {"measurement": "motor function in the horizontal screen test, in words", "setting": "[1]", "value": "dramatically impair motor function"},
      {"measurement": "elevation in thresholds to the three seizure endpoints", "setting": "[4]", "value": "comparable elevations"}
    ]}
  ]
}
